Assay results from PubChem BioAssay AID1159562 (GlaxoSmithKline (GSK), 2015).
Calls of active or inactive are those of the source. The rule behind the calls is not given here.

System: Trypanosoma brucei growth inhibition, luminescence
Assay: antitrypanosomal activity against T. brucei – luminescence (AID 1159562);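 note: parasites grew with compound for 24 h before the luminescence read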

SMILES	IC50
COc1cccc2sc(CN(C)C(=O)C3CNCCN3c3ccc(F)cc3)c(C)c12 (centres undefined)	250 nM
COc1ccc(OC)c(S(=O)(=O)N(Cc2c(F)cccc2F)[C@@H]2CCN(C#N)C2)c1	790 nM
Cc1ccc(Nc2nc(-c3ccccn3)cc(N3CCCC(O)C3)n2)cc1 (centres undefined)	3200 nM
OCCCNc1nc(Nc2ccncc2)nc2ccccc12	> 40000 nM (inactive)
c1ccc(-c2nc(NCc3ccco3)c3ccccc3n2)nc1	6300 nM
O=C(CN(Cc1ccccn1)Cc1ccccn1)NC1Cc2ccccc2C1	13000 nM
COc1ccc(C2CC(c3ccccc3Cl)=NN2C(=O)CNC(=O)C2CCC2)cc1 (centres undefined)	500 nM
CCc1ccccc1[C@@H](C)NC(=O)c1cnc2c(cnn2CC)c1NC1CCN(C(N)=O)CC1	500 nM
CC(C)CC(=O)Nc1cc(C2CC2)nn1-c1nc2c(c(=O)[nH]1)CCCC2	200 nM
FC(F)(F)c1cc(C2CCCN(Cc3c[nH]c4ccccc34)C2)nc2ncnn12 (centres undefined)	> 40000 nM (inactive)
Cc1cc(-c2cccc3ccccc23)nc2nc(N)nc(N)c12	20000 nM
CCCCCNC(=O)c1c[nH]c2ccc(S(=O)(=O)N(C)c3ccc(OCC)cc3)cc2c1=O	250 nM
Cc1nc(N2CCC(C(=O)N3CCC(O)(c4cccnc4)CC3)CC2)nc2ccc(C(C)C)cc12	32000 nM
CS(=O)(=O)c1ccccc1C(=O)N(Cc1ccccc1)c1ccccc1	630 nM
CC(C)(C)Nc1nc(-c2ccccn2)nc2ccccc12	6300 nM
CCCn1c(NC(=O)Cc2ccc(Cl)cc2)nc2ccccc21	3200 nM
C[C@@H](Oc1cc(-n2cnc3cc(N)ccc32)sc1C(N)=O)c1ccccc1Cl	790 nM
Cc1occc1C(=O)Nc1ccccc1C(=O)Nc1nccs1	500 nM
CNc1c(C(N)=O)c(-c2ccc3scnc3c2)nn1CC(F)(F)F	> 40000 nM (inactive)
O=C(NCCc1csc(-c2ccc(F)cc2)n1)c1ccco1	500 nM
O=C(c1ccc(Cl)cc1)c1ccc(OC(=O)N2CCOCC2)cc1	> 40000 nM (inactive)
Nc1cc(-c2ccc3ncnc(N4CCOCC4)c3c2)cnc1N	160 nM
Cc1ccc(C)c(-n2nnnc2Sc2nc([N+](=O)[O-])nn2C)c1	16000 nM
Cn1nc(C(=O)N2CCc3ccccc32)c2c1CCS(=O)(=O)C2	6300 nM
CCOC(=O)c1noc(N)c1-c1ccccc1	630 nM
O=C(NCCc1cccnc1)c1ccc(-c2ccccc2F)o1	> 40000 nM (inactive)
O=C(Nc1ccc(-c2nc3ccccc3c(=O)[nH]2)cc1)c1cccs1	1000 nM

SMILES	IC50
CC(=O)Nc1ccc(CN2CCC(N3CC(c4ccccc4)(c4ccccc4)OCC3=O)CC2)cc1	400 nM
CCn1nccc1CN(C)C(=O)C=Cc1ccc(Cl)cc1	> 40000 nM (inactive)
N#Cc1ccc(S(=O)(=O)N2CCC3(CCN(c4ccccc4)C3=O)CC2)cc1	> 40000 nM (inactive)
COc1ccccc1-c1c(C)[nH]c2nc(N)nc(C)c12	> 40000 nM (inactive)
Cc1[nH]nc(-c2nc3ccccc3[nH]2)c1C(=O)NC1CCCNC1 (centres undefined)	500 nM
CS(=O)(=O)NC1CCC(Nc2ncc(Br)c(Nc3ccccc3C(N)=O)n2)CC1 (centres undefined)	79 nM
Nc1nc(-c2ccccc2)cc(-c2nc3ncccc3[nH]2)n1	16000 nM
CCCN(Cc1ccc(OC)c(OC)c1)Cc1cc(=O)c2c(C)cc(C)cc2[nH]1	> 40000 nM (inactive)
O=C(NC(CO)c1ccc(F)cc1)c1ccc(-c2c[nH]c3ncccc23)s1 (centres undefined)	790 nM
O=c1ccn(-c2ccc([N+](=O)[O-])cc2Cl)c2ccc(F)cc12	> 40000 nM (inactive)
NS(=O)(=O)c1ccc(Nc2nccc(-c3cnn4ncccc34)n2)cc1	160 nM
CN(Cc1ccc(F)cc1)c1ccc(OCC(=O)N2CCCCC2c2cccnc2)nn1 (centres undefined)	> 40000 nM (inactive)
O=S(=O)(c1ccccc1C(F)(F)F)N1CCN(Cc2ccc(-n3ccnc3)cc2)CC1	> 40000 nM (inactive)
O=C(c1cc2cc(Cl)ccc2[nH]1)N1CCCCC1c1cccnc1 (centres undefined)	16000 nM
Cn1ccnc1-c1nc(NCc2ccccc2Cl)cc(C2CC2)n1	1600 nM
O=C(Nc1ccc(C(=O)N2CCCC2c2ccc3c(c2)OCCCO3)cc1)c1ccco1 (centres undefined)	320 nM
CC(CNS(=O)(=O)c1ccc(OC(F)F)cc1)c1ccc(NC(=O)c2ccncc2)cc1 (centres undefined)	20000 nM
CCCCn1c(=O)c2c(N)onc2n(CCCC)c1=O	500 nM
COc1ccccc1C=CCN1C[C@H]2CCC[C@@H](C1)C2(O)c1cccnc1 (some centres undefined)	> 40000 nM (inactive)
Cc1nc2c(-c3nc(-c4ccc(N)cc4)n[nH]3)cccn2c1C	25000 nM
Cc1ccccc1CNC(=O)CN(Cc1ccccn1)Cc1ccccn1	20000 nM
CCC(=O)Nc1ccccc1C(=O)Nc1ccccn1	400 nM
O=C1CCCCCC1(Cc1cnc[nH]1)c1ccc(Cl)cc1Cl (centres undefined)	> 40000 nM (inactive)
Fc1ccccc1N1C[C@H]2CCN(c3cccnc3)C[C@H]2C1	> 40000 nM (inactive)
CCN(Cc1ccncc1)Cc1ccc(NC(=O)c2cc(-c3ccc(F)cc3)n[nH]2)cc1	> 40000 nM (inactive)
COc1ccc2ncc(=O)n(CCN3CCC(NCc4ccc(-c5cccs5)cc4)CC3)c2n1	6300 nM
CCc1ccc2nc(NC(=O)c3cc(N4CCOCC4)ccn3)sc2c1	1000 nM
